# US6855695B2, “Water-soluble SHPs as novel alkylating agents” (Vion Pharmaceuticals, Inc., priority 2003, dated 2005)
# What was measured:
# [1] = Aqueous stability in potassium phosphate buffers (50 mM), pH 3, 5, 7 and 9, HPLC; format: physicochemical; conditions: potassium phosphate buffer 50 mM
# Description: The stabilities of PAP-101M (19), OAP-101M (20a), and VNP40101M were investigated in potassium phosphate buffers (50 mM) at pH 3, 5, 7 and 9 and at room temperature (22-25° C.). One sample was prepared at each pH for each drug; the initial drug concentration in each sample was 50 μg/mL. Each sample was analyzed by HPLC repetitively, at various time points, to determine the
# concentration of the respective drug. The first-order kinetic half-lives of each drug were calculated.
# [2] = Stability in 100% human plasma; format: in vitro ADME; conditions: both sexes, 37° C.
# Description: (§1) The stability of compounds 19, 20a and VNP40101M was evaluated in 100% human plasma (pooled mixed gender, BioChemed) at a final concentration of 50 μg/mL. Each drug (19 or 20a) was incubated in human plasma at 37° C. for a maximum of two hours. Aliquots of the incubation mixture were taken at various time points and extracted with acetonitrile. The extract was separated by centrifugation and analyzed directly by HPLC. In a similar manner, VNP40101M was incubated in human plasma at 37° C. for a maximum of one hour. At various time points, aliquots of the incubation mixture were removed and extracted with 0.5% H3PO4 in acetonitrile. The extract was separated by centrifugation and analyzed directly by HPLC. For comparison, the stability of each drug incubated in 50 mM Tris buffered saline (pH 7.6) instead of 100% human plasma was also determined.
# [3] = Stability in 50 mM Tris buffered saline pH 7.6 (control without AP or plasma); format: physicochemical; conditions: 50 mM Tris buffered saline pH 7.6, 37° C.
# Description: (§2) A control sample of each drug at a final concentration of 50 μg/mL in 50 mM Tris buffered saline (pH 7.6) without AP was also incubated at 37° C. Aliquots of each solution were taken periodically; disappearance of the tested drug was determined by HPLC.
# as §1
# [4] = system: B16-F10 murine melanoma; assay: In vivo anti-tumor activity, B16-F10 murine melanoma implanted subcutaneously in C57BL/6 mice; conditions: for Tumor growth inhibition on Day 24: ip weekly for four weeks from Day 2, 80 mg/kg VNP40101M, equal molar doses of prodrugs
# Description: (§3) The anti-tumor effects of VNP40101 M and prodrugs, including PAP-101M (19), OAP-101M (20a), PAP-Na-101M (21), and OAP-Na-101M (22a), were evaluated in both the B16-F10 murine melanoma and HTB177 human lung carcinoma models. B16-F10 melanoma cells were implanted subcutaneously (5×10^5 cells) into C57BL/6 mice, which were randomized into groups of ten immediately after tumor cell implantation (Day 0). On Day 2, mice were injected intraperitoneally with either a bolus injection of 0.1 mL PBS or drug. The treatment was carried out weekly for four consecutive weeks. Tumor measurement in three dimensions was determined once a week with the formula L×H×W/2, where L, H, and W represent length, height, and width, respectively. […] On Day 24, tumor growth was inhibited by 81% in mice treated with 80 mg/kg of VNP40101M, and by 75 to 91% in mice treated with equal molar doses of the prodrugs. […] The toxicity of these drugs in mice was mild as determined by body weight loss and animal appearance, as illustrated in FIG. 13.
# [5] = room temperature, Krishna et al. 2001; cited from earlier work
# [6] = system: leukemia cells implanted intracranially; conditions: Finch et al. 2001; cited from earlier work
# [7] = Water-solubility at room temperature; format: physicochemical; conditions: thermodynamic from solid; for solubility: determined visually by incremental addition, not at equilibrium
# Description: The solubility of the newly synthesized SHPs (19, 20a, 21, and 22a) is much higher than that of VNP40101 M, as shown in Table 1.
# For the free phosphoric acid 19 and 20a, an excess amount of the drug was placed in a glass vial containing 2.0 mL of water. The vials were shaken in a Glas Col rotary apparatus at room temperature for 24 hours. The suspension containing undissolved drug was centrifuged; the supernatant was carefully separated and analyzed by HPLC for drug concentration. […] Aqueous solutions of 19 and 20a were colorless. Similarly, the solubility of the sodium salts 21 and 22a was determined visually by adding incremental quantities of the drug to 2.0 mL of water in a glass vial. The vials were shaken at room temperature in a Glas Col rotary apparatus until the drug dissolved entirely. Additional fixed quantities of drug were added and the vials shaken until complete dissolution. This process was continued until no more drug dissolved. Compounds 21 and 22a are highly water-soluble. Because of limited drug supplies determination of the solubilities at equilibrium could not be obtained. Solubilities of >0.98 and >1.35 g/mL for 21 and 22a, respectively, were determined.
# [8] = system: HTB177 human lung carcinoma; assay: In vivo anti-tumor activity, HTB177 human lung carcinoma in nu/nu CD-1 mice
# Description: as §3
# [9] = system: alkaline phosphatase; assay: In vitro enzymatic bioconversion by alkaline phosphatase; format: in vitro ADME; conditions: bovine, alkaline phosphatase from bovine intestinal mucosa; approx. 0.055 unit/mL AP in 50 mM Tris buffered saline pH 7.6, 37° C., drug approx. 50 μg/mL
# Description: Each drug, at a final concentration of approximately 50 μg/mL, was incubated at 37° C. in 50 mM Tris buffered saline (pH 7.6) containing approximately 0.055 unit/mL of the phosphatase enzyme.
# as §2
# [10] = Pharmacokinetic study in rats, single iv bolus, HPLC-UV; format: in vivo, female Sprague-Dawley rats; conditions: iv bolus 50 mg/kg
# Description: Preliminary investigations of the pharmacokinetic profiles of prodrugs 19 and 20a were conducted in female Sprague-Dawley rats (10 weeks old, 250 g, Charles River). Each prodrug was administered as a single bolus intravenous (iv) injection via the jugular vein at a dose of 50 mg per kg (mpk) of body weight. Blood samples were collected on the day of dosing at the following time points: pre-dose and approximately 2, 10, 30 min, 1, 2, and 24 hr, after dosing. At each time point, approximately 0.2 mL of blood was collected in a tube containing an anticoagulant (heparin), which was immediately acidified by adding 0.005 mL of a 2.0 M citric acid solution. Then, the tube was inverted 4 to 6 times and immediately placed on ice. The blood samples were centrifuged within 30 min after blood collection at 3,000 rpm for 10-20 min at 2-8° C., and the plasma fraction was transferred to a labeled Nunc cryovial. The plasma samples were immediately frozen on dry ice and stored at −20° C. until HPLC-UV analysis. Animals were euthanized with CO2 inhalation after experiments.
# Bioanalytical methods were developed to quantify these prodrugs in rat plasma using HPLC-UV at either 220 nm or 230 nm. Each plasma sample (0.1 mL) was extracted with 0.2 mL of acetonitrile. The extract was separated by centrifugation and analyzed directly by HPLC-UV. HPLC calibration standards were prepared in control rat plasma and processed as above.
# Comparison to VNP101M (10 mpk of radioactive VNP101M was used in previous experiments) is difficult because of the difference in doses used in two the studies.
# [11] = pH 9, room temperature (22-25° C.), read-out: Half-life, pH 9 (converted)
# [12] = female, Sprague-Dawley, rat, plasma
SMILES,"half-life at 50 μg/mL [1, 11]",half-life at 50 μg/mL [2],Tumor growth inhibition on Day 24 [4],solubility at 24 h [7],solubility [7],Anti-tumor effect in HTB177 human lung carcinoma (FIGS. 14 and 15) [8],half-life at 50 μg/mL [9],other results
"CNC(=O)N(N(CCCl)S(C)(=O)=O)S(C)(=O)=O [VNP40101M, 1,2-Bis(methylsulfonyl)-1-(2-chloroethyl)-2-(methylaminocarbonyl) hydrazine]",0.00479 days,14.5 min,81%,–,–,–,–,"half-life at 50 μg/mL ([1]; pH 5, room temperature (22-25° C.), read-out: Half-life, pH 5 (converted)): 118 days; half-life at 50 μg/mL ([1]; pH 7, room temperature (22-25° C.), read-out: Half-life, pH 7 (converted)): 0.508 days; half-life at 50 μg/mL [3]: 20.5 min; Water-solubility [5]: 0.66 mg/mL; Log cell kill [6]: > 6.54 log cell kill"
"CN(Cc1ccc(OP(=O)([O-])[O-])cc1)C(=O)N(N(CCCl)S(C)(=O)=O)S(C)(=O)=O.[Na+].[Na+] [PAP-Na-101M (21), Phosphoric acid 4-{N-[1,2-bis(methylsulfonyl)-2-(2-chloroethyl)-hydrazinylcarbonyl]-N-methylaminomethyl}-phenyl ester disodium salt]",–,–,–,> 980 mg/mL,> 980 mg/mL,–,–,–
"CN(Cc1ccccc1OP(=O)([O-])[O-])C(=O)N(N(CCCl)S(C)(=O)=O)S(C)(=O)=O.[Na+].[Na+] [OAP-Na-101M (22a), Phosphoric acid 2-{N-[1,2-bis(methylsulfonyl)-2-(2-chloroethyl)-hydrazinylcarbonyl]-N-methylaminomethyl}-phenyl ester disodium salt]",–,–,89.5%,> 1350 mg/mL,> 1350 mg/mL,holdout promise,–,–
"CN(Cc1ccc(OP(=O)(O)O)cc1)C(=O)N(N(CCCl)S(C)(=O)=O)S(C)(=O)=O [PAP-101M (19), Phosphoric acid mono-{4-{N-[1,2-bis(methylsulfonyl)-2-(2-chloroethyl)-hydrazinylcarbonyl]-N-methylaminomethyl}-phenyl} ester]",–,34.3 min,–,293 mg/mL,–,–,21.1 min,Pharmacokinetic determination in rat plasma (in words) [10]: fast conversion or clearance
"CN(Cc1ccccc1OP(=O)(O)O)C(=O)N(N(CCCl)S(C)(=O)=O)S(C)(=O)=O [OAP-101M (20a), Phosphoric acid mono-{2-{N-[1,2-bis(methylsulfonyl)-2-(2-chloroethyl)-hydrazinylcarbonyl]-N-methylaminomethyl}-phenyl} ester]",171 days,53.3 min,91%,46 mg/mL,–,holdout promise,29 min,"half-life ([10]; female, Sprague-Dawley, rat, plasma, iv, 50 mg/kg): ~14 min; AUC [10, 12]: 21900 ng·h/mL; Cmax [10, 12]: 239 µg/mL; clearance [10, 12]: 37.8 mL/min/kg; Vd ([10]; female, Sprague-Dawley, rat, plasma, read-out: Vss): 0.146 L/kg; Survival of tumor-bearing mice (FIG. 12) ([4]; B16-F10 tumor-bearing mice, versus other drugs): survived longer"
